The values that follow come from ChEMBL document CHEMBL6083251, “"Pseudosubstrate Envelope"/Free Energy Perturbation-Guided Design and Mechanistic Investigations of Benzothiazole HIV Capsid Modulators with High Ligand Efficiency” (J Med Chem, 2024).

In data set [1] the test system is Human immunodeficiency virus 1. Nature of the data set: Anti-HIV activity against wild type HIV-1 IIIB infected in human MT4 cells assessed as protection against virus-induced cytopathic effect incubated for 5 days by spectrophotometric based MTT assay. It counts as functional, organism-based. The following applies: Human immunodeficiency virus 1, IIIB, MT4, 120 h. Background: Cytopathic effects are the visible damage that an infection or toxin causes in cultured cells.

For data set [2], the system named is Human immunodeficiency virus 2. Nature of the data set: Anti-HIV activity against HIV-2 ROD infected in human MT-4 cells assessed as protection against virus-induced cytopathic effect incubated for 5 days by spectrophotometric based MTT assay. The following applies: Human immunodeficiency virus 2, ROD, MT4, 120 h. It counts as functional, organism-based.
Data set [3] in a line: Selectivity ratio of EC50 for wild type HIV-1 IIIB infected in human MT4 cells to EC50 for HIV-2 ROD infected in human MT-4 cells assessed as protection against virus-induced cytopathic effect incubated for 5 days by spectrophotometric based MTT assay. Type of data set: functional. The following applies: time 5 day.
Data set [4] can be described thus: Selectivity index, ratio of CC50 for human MT4 cells to EC50 for wild type HIV-1 IIIB infected in human MT4 cells. Type of data set: toxicity, cell-based. The following applies: read-out: Selectivity Index.
The next data set has as its system MT4. The data set can be described thus: Cytotoxicity against human MT4 cells assessed as reduction in cell viability incubated for 5 days by spectrophotometric based MTT assay. It counts as functional. The following applies: MT4, 120 h, time 5 day. In general terms: Formazan colour is commonly taken as a measure of viable cells.
Data set [5] in a line: Selectivity index, ratio of CC50 for human MT4 cells to EC50 for HIV-2 ROD infected in human MT-4 cells. Type of data set: toxicity, cell-based. The following applies: read-out: Selectivity Index.
Data set [6] deals with Structural capsid protein (Human immunodeficiency virus 1) (UniProt Q76129). The data set can be described thus: Binding affinity to monomeric HIV-1 NL4.3 capsid protein assessed as dissociation rate (Koff) by SPR assay. The following applies: filed as modulator. (In general: In SPR one partner is held on a chip, and binding of the other changes the refractive index at the surface.)
Chain of Structural capsid protein (Human immunodeficiency virus 1) (Q76129 as listed by the source): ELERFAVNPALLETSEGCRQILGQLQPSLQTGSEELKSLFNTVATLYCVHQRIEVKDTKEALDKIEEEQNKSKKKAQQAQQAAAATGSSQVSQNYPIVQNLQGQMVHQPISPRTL

Data set [7] shares this target. The data set can be described thus: Binding affinity to monomeric HIV-1 NL4.3 capsid protein assessed as residence time by SPR assay. The following applies: filed as modulator.
Data set [8] has the same target. The data set can be described thus: Binding affinity to hexameric HIV-1 NL4.3 capsid protein assessed as dissociation rate (Koff) by SPR assay. The following applies: filed as modulator.
Data set [9] shares this target. Nature of the data set: Binding affinity to hexameric HIV-1 NL4.3 capsid protein assessed as residence time by SPR assay. The following applies: filed as modulator.
A short description of data set [10]: Metabolic stability in human liver microsomes assessed as intrinsic clearance at 1 uM incubated for 60 mins by LC-MS/MS analysis. It counts as ADME, Microsome. The following applies: read-out: CLH.

The EC50 is the concentration needed to bring the measured effect to its halfway point. The CC50 is the concentration giving 50% cytotoxicity.

Turning to `Cc1[nH]c2ccc(Cl)cc2c1CC(=O)N[C@@H](Cc1cc(F)cc(F)c1)C(=O)N(C)c1ccc2scnc2c1`, the concentration giving a half-maximal response (EC50) stood at 199 nM in data set [1] and 633 nM in data set [2]. The “Ratio EC50” value in [3] turned out to be 0.31. Besides, the selectivity ratio in data set [4] is 133; in [5], 41.7. In addition, the CC50 with MT4 was 26.4 µM.
With `CN(C(=O)[C@H](Cc1cc(F)cc(F)c1)NC(=O)Cc1c[nH]c2ccc(F)cc12)c1ccc2scnc2c1`, the EC50 in [1] turned out to be 10.1 nM; in data set [2], 144 nM. For the same compound, the “Ratio EC50” value in [3] was 0.07. Moreover, the selectivity ratio in data set [4] turned out to be 2510; in data set [5], 177. Also, the CC50 in the data set with MT4 is 25.5 µM.
As to `CN(C(=O)[C@H](Cc1cc(F)cc(F)c1)NC(=O)Cc1c[nH]c2cc(F)ccc12)c1ccc2scnc2c1`, the EC50 came out at 16.8 nM in data set [1] and 165 nM in [2]. The “Ratio EC50” value in [3] is on record as 0.1. In addition, the selectivity ratio in data set [4] was 1500; in [5] it was 153. Further, in the data set with MT4, the CC50 is 25.2 µM.
On to `Cc1[nH]c2ccc(F)cc2c1CC(=O)N[C@@H](Cc1cc(F)cc(F)c1)C(=O)N(C)c1ccc2scnc2c1`, for which the EC50 in data set [1] amounted to 170 nM; in data set [2], 745 nM. Further, the “Ratio EC50” value in [3] was determined as 0.23. Moreover, the selectivity ratio came out at 147 in [4] and 33.4 in data set [5]. In addition, the cytotoxic concentration (CC50) in the data set with MT4 is 24.9 µM.
On to `COc1ccc2[nH]c(C)c(CC(=O)N[C@@H](Cc3cc(F)cc(F)c3)C(=O)N(C)c3ccc4scnc4c3)c2c1`, for which the values for the EC50 in data set [1] and in [2] were 32.8 nM and 365 nM, respectively. Moreover, in data set [3], the “Ratio EC50” value is on record as 0.09. The results for the selectivity ratio in data set [4] and in [5] were 900 and 81, respectively. The 50% cytotoxic concentration (CC50) in the data set on MT4 was determined as 29.5 µM.
For the compound `COc1ccc2[nH]cc(CC(=O)N[C@@H](Cc3cc(F)cc(F)c3)C(=O)N(C)c3ccc4scnc4c3)c2c1`, the EC50 in data set [1] came out at 22.4 nM; in [2], 159 nM. The “Ratio EC50” value in data set [3] is 0.14. For the same compound, the values for the selectivity ratio in data set [4] and in data set [5] were 3260 and 460, respectively. Also, the 50% cytotoxic concentration (CC50) in the data set with MT4 amounted to 73.2 µM.
As to `Cc1cc(C)n(CC(=O)N[C@@H](Cc2cc(F)cc(F)c2)C(=O)N(C)c2ccc3scnc3c2)n1`, the EC50 in [1] is 269 nM; in [2] it was 3060 nM. Besides, the “Ratio EC50” value in data set [3] was found to be 0.09. Also, the selectivity ratio was greater than 962 in data set [4] and greater than 84.5 in data set [5]. The 50% cytotoxic concentration (CC50) in the data set on MT4 was greater than 259 µM.
As to `CN(C(=O)[C@H](Cc1cc(F)cc(F)c1)NC(=O)Cc1c[nH]c2ccc(Br)cc12)c1ccc2scnc2c1`, the 50% effective concentration (EC50) came out at 32.6 nM in [1] and 171 nM in data set [2]. The “Ratio EC50” value in data set [3] is recorded as 0.19. In addition, the selectivity ratio was 718 in data set [4] and 137 in data set [5]. Besides, the CC50 with MT4 was 23.4 µM.
`CN(C(=O)[C@H](Cc1cc(F)cc(F)c1)NC(=O)Cc1c[nH]c2cc(Cl)ccc12)c1ccc2scnc2c1`: the concentration for a half-maximal effect (EC50) was found to be 37.1 nM in data set [1] and 126 nM in [2]. The “Ratio EC50” value in data set [3] is 0.29. The figures for the selectivity ratio in data set [4] and in data set [5] were 669 and 197, respectively. Moreover, in the data set with MT4, the CC50 was 24.8 µM.
Regarding `CN(C(=O)[C@H](Cc1cc(F)cc(F)c1)NC(=O)Cc1c[nH]c2ccccc12)c1ccc2scnc2c1`, the EC50 in data set [1] was found to be 39.6 nM; in [2], 218 nM. Besides, the “Ratio EC50” value in data set [3] is given as 0.18. The values for the selectivity ratio in [4] and in data set [5] were 842 and 153, respectively. Moreover, the CC50 with MT4 was found to be 33.4 µM.
Consider `CN(C(=O)[C@H](Cc1cc(F)cc(F)c1)NC(=O)C(=O)c1c[nH]c2ccccc12)c1ccc2scnc2c1`, for which the EC50 in data set [1] and in data set [2] was greater than 23600 nM throughout. The selectivity ratio in [4] and in data set [5] was less than 0.01 in each case. The 50% cytotoxic concentration (CC50) in the data set on MT4 was determined as 23.6 µM.
Consider `Cc1ccc2[nH]cc(CC(=O)N[C@@H](Cc3cc(F)cc(F)c3)C(=O)N(C)c3ccc4scnc4c3)c2c1`, for which the half-maximal effective concentration (EC50) is 42.4 nM in data set [1] and 193 nM in [2]. Moreover, in data set [3], the “Ratio EC50” value came to 0.22. Besides, the selectivity ratio in data set [4] was determined as 621; in [5], 137. Moreover, in the data set with MT4, the CC50 turned out to be 26.4 µM.
For `Cc1[nH]c2ccccc2c1CC(=O)N[C@@H](Cc1cc(F)cc(F)c1)C(=O)N(C)c1ccc2scnc2c1`, the results for the concentration giving a half-maximal response (EC50) in data set [1] and in [2] were 270 nM and 887 nM, respectively. Further, the “Ratio EC50” value in [3] is 0.3. Besides, the selectivity ratio in data set [4] turned out to be 108; in data set [5] it was 32.8. Also, the CC50 in the data set on MT4 is 29.1 µM.
Take `CN(C(=O)[C@H](Cc1cc(F)cc(F)c1)NC(=O)Cc1c[nH]c2cccc(Cl)c12)c1ccc2scnc2c1`: the concentration for a half-maximal effect (EC50) turned out to be 186 nM in [1] and 1930 nM in [2]. Moreover, in [3], the “Ratio EC50” value came to 0.1. Besides, the figures for the selectivity ratio in [4] and in data set [5] were 132 and 12.7, respectively. Moreover, in the data set on MT4, the 50% cytotoxic concentration (CC50) worked out at 24.4 µM.
Consider `COc1ccc2c(CC(=O)N[C@@H](Cc3cc(F)cc(F)c3)C(=O)N(C)c3ccc4scnc4c3)c[nH]c2c1`, for which the concentration giving a half-maximal response (EC50) in data set [1] was determined as 127 nM; in data set [2], 224 nM. Besides, the “Ratio EC50” value in data set [3] is 0.57. For the same compound, the selectivity ratio in data set [4] stood at 300; in data set [5] it was 170. Further, the cytotoxic concentration (CC50) in the data set with MT4 was found to be 38.2 µM.
For `CN(C(=O)[C@H](Cc1cc(F)cc(F)c1)NC(=O)Cc1c[nH]c2cc(Br)ccc12)c1ccc2scnc2c1`, the EC50 came out at 27.4 nM in [1] and 68.6 nM in data set [2]. Further, the “Ratio EC50” value in [3] came to 0.4. In addition, the selectivity ratio in data set [4] was 848; in data set [5], 339. In the data set on MT4, the CC50 is 23.3 µM.
Consider `CN(C(=O)[C@H](Cc1cc(F)cc(F)c1)NC(=O)Cc1c[nH]c2cccc(F)c12)c1ccc2scnc2c1`, for which the EC50 worked out at 53.6 nM in data set [1] and 498 nM in data set [2]. For the same compound, in data set [3], the “Ratio EC50” value amounted to 0.11. Besides, the selectivity ratio in data set [4] was 439; in data set [5], 47.3. Further, the CC50 with MT4 was found to be 23.5 µM.
For `COC(=O)c1c(C)ccn1CC(=O)N[C@@H](Cc1cc(F)cc(F)c1)C(=O)N(C)c1ccc2scnc2c1`, the half-maximal effective concentration (EC50) in [1] turned out to be 1030 nM; in [2] it was 1920 nM. In addition, in data set [3], the “Ratio EC50” value was 0.53. The values for the selectivity ratio in [4] and in [5] were 124 and 66.3, respectively. Besides, the CC50 in the data set with MT4 was 127 µM.
Regarding `Cc1cc(C(F)(F)F)nn1CC(=O)N[C@@H](Cc1cc(F)cc(F)c1)C(=O)N(C)c1ccc2scnc2c1`, the EC50 was determined as 223 nM in [1] and 912 nM in [2]. In data set [3], the “Ratio EC50” value is recorded as 0.24. Besides, the selectivity ratio in [4] worked out at 543; in data set [5] it was 133. In the data set on MT4, the CC50 stood at 121 µM.
Take `CN(C(=O)[C@H](Cc1cc(F)cc(F)c1)NC(=O)Cc1c[nH]c2cccc(Br)c12)c1ccc2scnc2c1`: the EC50 turned out to be 166 nM in [1] and 1080 nM in data set [2]. Besides, the “Ratio EC50” value in [3] worked out at 0.15. The values for the selectivity ratio in data set [4] and in data set [5] were 133 and 20.5, respectively. Further, the CC50 in the data set with MT4 is 22.2 µM.
`CN(C(=O)[C@H](Cc1cc(F)cc(F)c1)NC(=O)Cc1c[nH]c2ccc(Cl)cc12)c1ccc2scnc2c1`: the concentration for a half-maximal effect (EC50) in data set [1] is 16.3 nM; in data set [2], 158 nM. The “Ratio EC50” value in data set [3] is given as 0.1. For the same compound, the selectivity ratio in data set [4] turned out to be 1450; in [5], 150. Further, in the data set on MT4, the CC50 was determined as 23.7 µM.
For the compound `COc1ccc(N(C)C(=O)[C@H](Cc2ccccc2)NC(=O)CN2CCN(S(=O)(=O)c3ccc(N)cc3)CC2=O)cc1`, the half-maximal effective concentration (EC50) in data set [2] turned out to be 13.6 nM. Moreover, the half-maximal cytotoxic concentration (CC50) with MT4 was 114 µM. Also, the K is 2.34 10^-1/s in [6] and 2.01 10^-2/s in [8]. The TIME was determined as 0.00118 h in [7] and 0.0138 h in data set [9]. Also, in [10], the CLint scaled at 1 µM was found to be 344 mL/min/kg.
